# From US20110015241A1, “SUBSTITUTED HETEROCYCLES AND USE THEREOF” (BAYER SCHERING PHARMA AKTIENGESELLSCHAFT, priority 2006, published 2011)
# Structures can show the parent of a compound that is named as a salt.
# Target: T1, human factor Xa (Homo sapiens, UniProt P00742)
# T1 construct: factor Xa, which is formed from the proenzyme factor X
# Assay: Determination of the factor Xa inhibition (fluorogenic substrate Boc-Ile-Glu-Gly-Arg-AMC)
# Type: biochemical
# Conditions: 15 min preincubation at 22° C., substrate 5 μmol/l, pH 7.4, fluorescence 360/460 nm
# Procedure: In order to determine the factor Xa inhibition of the substances listed above, a biochemical test system is set up, in which the conversion of a factor Xa substrate is used to determine the enzymatic activity of human factor Xa. Factor Xa cleaves aminomethylcoumarin, whose fluorescence is measured, from the peptidic substrate. The determinations are carried out in microtitre plates.
# Substances to be tested, in various concentrations, are dissolved in dimethyl sulphoxide and incubated for 15 min at 22° C. with human Factor Xa ([…] dissolved in 50 mmol/l of Tris buffer [C,C,C-tris(hydroxymethyl)aminomethane], 100 mmol/l NaCl, 0.1% BSA [bovine serum albumin], pH 7.4). The substrate (5 μmol/l of Boc-Ile-Glu-Gly-Arg-AMC from Bachem) is then added. After an incubation time of 30 min, the sample is excited at a wavelength of 360 nm, and the emission at 460 nm is measured. The measured emissions of the test batches with test substance are compared to the control batches without test substance (only dimethyl sulphoxide instead of test substance in dimethyl sulphoxide), and IC50 values are calculated from the concentration/activity relationships.
# T1 sequence (P00742 235-488 limits assumed): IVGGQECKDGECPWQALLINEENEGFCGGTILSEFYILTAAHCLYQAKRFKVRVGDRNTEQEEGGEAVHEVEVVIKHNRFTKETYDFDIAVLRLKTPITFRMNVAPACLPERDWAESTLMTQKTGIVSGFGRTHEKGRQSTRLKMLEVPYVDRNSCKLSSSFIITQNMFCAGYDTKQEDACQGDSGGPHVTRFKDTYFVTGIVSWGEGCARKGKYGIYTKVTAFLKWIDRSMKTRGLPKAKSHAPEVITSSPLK
# T1 sequence (P00742 41-179 partner limits assumed): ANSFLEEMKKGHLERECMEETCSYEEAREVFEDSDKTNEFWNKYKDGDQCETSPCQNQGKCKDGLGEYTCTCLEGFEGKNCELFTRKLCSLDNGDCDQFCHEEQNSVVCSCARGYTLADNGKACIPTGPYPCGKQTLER
row,IC50 [nM],SMILES
1,7.9,"N=C1OCCN1c1ccc(C2=NOC(CNC(=O)c3ccc(Cl)s3)C2)cc1 (centres unmarked) [Example 1, 5-Chloro-N-({3-[4-(2-imino-1,3-oxazolidin-3-yl)phenyl]-4,5-dihydroisoxazol-5-yl}methyl)thiophene-2-carboxamide]"
2,1.4,"N=C1OCCN1c1ccc(-n2cc(CNC(=O)c3ccc(Cl)s3)c(-c3ccccc3)n2)cc1 [Example 2, 5-Chloro-N-({1-[4-(2-imino-1,3-oxazolidin-3-yl)phenyl]-3-phenyl-1H-pyrazol-4-yl}methyl)thiophene-2-carboxamide hydrochloride]"
